“And” between values parts separate entries of the source, which are not always exact repeats. Identical values can stand only once. Like-named read-outs stand apart in the source and are kept apart here.
Experiments:
Type in all cases: biochemical
PEAK1 = target: T1, PEAK1 (Homo sapiens, UniProt Q9H792); test: HotSpot in vitro kinase radiometric assay; conditions: for inhibition at 10 µM: read-out: % inhibition at 10 uM: PEAK1, 10 μM
T1 construct: purchased Reaction Biology (HotSpot contract assay)

FGR = target: T2, FGR (Homo sapiens, UniProt P09769); test: HotSpot in vitro kinase radiometric assay; conditions: for inhibition at 10 µM: read-out: % inhibition at 10 uM: FGR, Fig 6C median ± standard deviation (n = 2)
T2 construct: purchased Reaction Biology (HotSpot contract assay)

FYN = target: T3, FYN (Homo sapiens, UniProt P06241); test: HotSpot in vitro kinase radiometric assay; conditions: for inhibition at 10 µM: read-out: % inhibition at 10 uM: FYN, Fig 6C median ± standard deviation (n = 2)
T3 construct: purchased Reaction Biology (HotSpot contract assay)

TRKC = target: T4, TRKC (Homo sapiens, UniProt Q16288); test: HotSpot in vitro kinase radiometric assay; conditions: for inhibition at 10 µM: read-out: % inhibition at 10 uM: TRKC, Fig 6C median ± standard deviation (n = 2)
T4 construct: purchased Reaction Biology (HotSpot contract assay)

LCK = target: T5, LCK (Homo sapiens, UniProt P06239); test: HotSpot in vitro kinase radiometric assay; conditions: for inhibition at 10 µM: read-out: % inhibition at 10 uM: LCK, Fig 6C median ± standard deviation (n = 2)
T5 construct: purchased Reaction Biology (HotSpot contract assay)

YES/YES1 = target: T6, YES/YES1 (Homo sapiens, UniProt P07947); test: HotSpot in vitro kinase radiometric assay; conditions: for inhibition at 10 µM: read-out: % inhibition at 10 uM: YES, Fig 6C median ± standard deviation (n = 2)
T6 construct: purchased Reaction Biology (HotSpot contract assay)

TRKA-TFG (TRK-T3) = target: T7, TRKA-TFG (TRK-T3) (Homo sapiens, UniProt P04629+Q92734); test: HotSpot in vitro kinase radiometric assay
T7 construct: purchased Reaction Biology (HotSpot contract assay)

382 unique human kinases [1] = target: T8, 382 unique human kinases (Homo sapiens, UniProt P51813); test: biochemical; conditions: BMX/ETK, [ATP] 50 µM, compound 10 uM; for remaining activity at 10 µM: read-out: % Enzyme Activity (relative to DMSO controls)
T8 construct: purchased Reaction Biology (HotSpot contract assay)
T8 sequence (P51813 1-675): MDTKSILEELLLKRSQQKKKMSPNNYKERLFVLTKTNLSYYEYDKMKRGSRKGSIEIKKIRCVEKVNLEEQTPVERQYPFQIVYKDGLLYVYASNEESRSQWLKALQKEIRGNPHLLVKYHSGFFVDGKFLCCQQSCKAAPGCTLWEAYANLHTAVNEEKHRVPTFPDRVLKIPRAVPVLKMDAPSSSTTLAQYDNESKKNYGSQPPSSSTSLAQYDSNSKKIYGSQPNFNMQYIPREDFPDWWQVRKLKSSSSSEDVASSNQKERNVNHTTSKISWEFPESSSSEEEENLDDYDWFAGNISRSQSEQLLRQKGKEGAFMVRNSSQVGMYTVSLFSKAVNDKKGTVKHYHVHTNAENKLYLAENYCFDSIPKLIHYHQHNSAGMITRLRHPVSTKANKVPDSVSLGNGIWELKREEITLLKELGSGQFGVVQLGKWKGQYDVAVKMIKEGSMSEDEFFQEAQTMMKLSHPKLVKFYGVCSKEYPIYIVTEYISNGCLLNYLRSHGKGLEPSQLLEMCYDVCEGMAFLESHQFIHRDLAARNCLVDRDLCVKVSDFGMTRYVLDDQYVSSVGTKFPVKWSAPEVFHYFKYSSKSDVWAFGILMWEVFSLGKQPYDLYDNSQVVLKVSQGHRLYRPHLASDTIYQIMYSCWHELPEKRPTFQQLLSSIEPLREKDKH

382 unique human kinases [2] = target: T9, 382 unique human kinases (Homo sapiens, UniProt P05129); test: biochemical; conditions: kinase PKCg, compound 10 uM; for remaining activity at 10 µM: read-out: % Enzyme Activity (relative to DMSO controls)
T9 construct: purchased Reaction Biology (HotSpot contract assay)

382 unique human kinases [3] = target: T10, 382 unique human kinases (Homo sapiens, UniProt P08922); test: biochemical; conditions: ROS/ROS1, 10 uM; for remaining activity at 10 µM: read-out: % Enzyme Activity (relative to DMSO controls)
T10 construct: purchased Reaction Biology (HotSpot contract assay)

382 unique human kinases [4] = target: T11, 382 unique human kinases (Homo sapiens, UniProt P22607, V555M); test: biochemical; conditions: FGFR3 (V555M), 10 uM; for remaining activity at 10 µM: read-out: % Enzyme Activity (relative to DMSO controls)
T11 construct: purchased Reaction Biology (HotSpot contract assay)

382 unique human kinases [5] = target: T12, 382 unique human kinases (Homo sapiens, UniProt Q02156); test: biochemical; conditions: kinase PKCepsilon, compound 10 uM; for remaining activity at 10 µM: read-out: % Enzyme Activity (relative to DMSO controls)
T12 construct: purchased Reaction Biology (HotSpot contract assay)
T12 sequence (Q02156 1-737): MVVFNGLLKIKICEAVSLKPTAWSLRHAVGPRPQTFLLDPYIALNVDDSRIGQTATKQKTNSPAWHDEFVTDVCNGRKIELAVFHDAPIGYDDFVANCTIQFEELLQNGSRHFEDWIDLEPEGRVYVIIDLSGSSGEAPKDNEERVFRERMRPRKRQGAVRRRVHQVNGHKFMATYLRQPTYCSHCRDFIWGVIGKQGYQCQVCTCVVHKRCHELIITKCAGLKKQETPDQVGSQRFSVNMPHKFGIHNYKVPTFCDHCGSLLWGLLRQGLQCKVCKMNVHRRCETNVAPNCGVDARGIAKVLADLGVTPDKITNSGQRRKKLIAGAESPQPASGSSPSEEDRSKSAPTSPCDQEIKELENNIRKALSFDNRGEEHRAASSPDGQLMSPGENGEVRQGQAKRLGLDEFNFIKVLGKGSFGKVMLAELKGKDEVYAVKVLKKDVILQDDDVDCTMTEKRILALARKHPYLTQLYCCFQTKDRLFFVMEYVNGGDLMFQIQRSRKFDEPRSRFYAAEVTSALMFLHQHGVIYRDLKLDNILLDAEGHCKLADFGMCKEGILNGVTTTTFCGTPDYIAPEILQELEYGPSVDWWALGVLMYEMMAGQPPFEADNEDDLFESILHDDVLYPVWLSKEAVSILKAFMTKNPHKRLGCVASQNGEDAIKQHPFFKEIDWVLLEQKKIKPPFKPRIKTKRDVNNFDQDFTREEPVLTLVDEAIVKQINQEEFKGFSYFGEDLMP

[6] = Fig 6C median ± standard deviation (n = 2)
[7] = radiometric 10-point concentration-response, n = 3, read-out: in vitro biochemical IC50, TRKA-TFG

T1 sequence (Q9H792 whole entry): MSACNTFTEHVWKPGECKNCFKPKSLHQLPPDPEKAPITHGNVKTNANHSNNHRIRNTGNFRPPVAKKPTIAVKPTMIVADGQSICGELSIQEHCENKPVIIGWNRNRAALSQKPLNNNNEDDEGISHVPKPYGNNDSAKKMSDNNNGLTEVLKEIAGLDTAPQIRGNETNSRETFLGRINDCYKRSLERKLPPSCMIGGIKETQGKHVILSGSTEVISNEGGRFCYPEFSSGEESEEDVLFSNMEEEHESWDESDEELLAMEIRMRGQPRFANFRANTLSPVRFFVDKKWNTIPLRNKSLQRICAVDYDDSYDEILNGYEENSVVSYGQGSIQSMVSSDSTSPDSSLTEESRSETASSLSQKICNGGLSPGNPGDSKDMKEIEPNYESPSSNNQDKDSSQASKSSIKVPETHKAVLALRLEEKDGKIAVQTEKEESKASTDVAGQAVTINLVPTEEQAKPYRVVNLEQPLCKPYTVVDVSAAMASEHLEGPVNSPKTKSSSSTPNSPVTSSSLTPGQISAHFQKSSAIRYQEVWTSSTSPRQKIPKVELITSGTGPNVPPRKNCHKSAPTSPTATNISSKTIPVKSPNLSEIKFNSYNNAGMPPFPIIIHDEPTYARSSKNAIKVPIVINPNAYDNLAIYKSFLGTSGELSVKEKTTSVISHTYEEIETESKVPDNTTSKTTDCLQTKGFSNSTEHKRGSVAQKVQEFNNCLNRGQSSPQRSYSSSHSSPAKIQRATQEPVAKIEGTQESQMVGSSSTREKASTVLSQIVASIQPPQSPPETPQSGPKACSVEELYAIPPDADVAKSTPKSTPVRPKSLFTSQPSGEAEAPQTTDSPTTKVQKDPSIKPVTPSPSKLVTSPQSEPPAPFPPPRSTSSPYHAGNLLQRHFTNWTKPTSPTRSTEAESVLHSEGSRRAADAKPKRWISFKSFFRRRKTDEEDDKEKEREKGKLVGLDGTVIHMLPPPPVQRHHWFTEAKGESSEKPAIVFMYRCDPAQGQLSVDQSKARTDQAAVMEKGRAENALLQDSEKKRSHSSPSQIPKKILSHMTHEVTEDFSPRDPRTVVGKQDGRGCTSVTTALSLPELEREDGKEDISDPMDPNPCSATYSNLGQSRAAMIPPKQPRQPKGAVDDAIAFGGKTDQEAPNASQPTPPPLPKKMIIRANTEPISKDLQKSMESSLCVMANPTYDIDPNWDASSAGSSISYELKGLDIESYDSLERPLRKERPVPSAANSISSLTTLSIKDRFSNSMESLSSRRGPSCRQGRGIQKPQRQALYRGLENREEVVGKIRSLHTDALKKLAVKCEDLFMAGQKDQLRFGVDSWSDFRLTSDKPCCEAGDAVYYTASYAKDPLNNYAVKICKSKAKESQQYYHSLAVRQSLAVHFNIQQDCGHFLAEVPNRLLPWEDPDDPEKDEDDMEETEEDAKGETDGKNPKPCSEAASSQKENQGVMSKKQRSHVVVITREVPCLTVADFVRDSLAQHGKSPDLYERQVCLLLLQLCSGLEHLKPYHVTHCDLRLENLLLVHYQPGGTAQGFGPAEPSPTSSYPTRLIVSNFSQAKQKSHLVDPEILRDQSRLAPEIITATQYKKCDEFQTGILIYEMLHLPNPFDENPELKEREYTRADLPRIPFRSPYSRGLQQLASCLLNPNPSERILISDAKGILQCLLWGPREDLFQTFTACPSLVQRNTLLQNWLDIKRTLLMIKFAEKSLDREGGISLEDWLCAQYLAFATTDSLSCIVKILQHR
T10 sequence (P08922 28-2347): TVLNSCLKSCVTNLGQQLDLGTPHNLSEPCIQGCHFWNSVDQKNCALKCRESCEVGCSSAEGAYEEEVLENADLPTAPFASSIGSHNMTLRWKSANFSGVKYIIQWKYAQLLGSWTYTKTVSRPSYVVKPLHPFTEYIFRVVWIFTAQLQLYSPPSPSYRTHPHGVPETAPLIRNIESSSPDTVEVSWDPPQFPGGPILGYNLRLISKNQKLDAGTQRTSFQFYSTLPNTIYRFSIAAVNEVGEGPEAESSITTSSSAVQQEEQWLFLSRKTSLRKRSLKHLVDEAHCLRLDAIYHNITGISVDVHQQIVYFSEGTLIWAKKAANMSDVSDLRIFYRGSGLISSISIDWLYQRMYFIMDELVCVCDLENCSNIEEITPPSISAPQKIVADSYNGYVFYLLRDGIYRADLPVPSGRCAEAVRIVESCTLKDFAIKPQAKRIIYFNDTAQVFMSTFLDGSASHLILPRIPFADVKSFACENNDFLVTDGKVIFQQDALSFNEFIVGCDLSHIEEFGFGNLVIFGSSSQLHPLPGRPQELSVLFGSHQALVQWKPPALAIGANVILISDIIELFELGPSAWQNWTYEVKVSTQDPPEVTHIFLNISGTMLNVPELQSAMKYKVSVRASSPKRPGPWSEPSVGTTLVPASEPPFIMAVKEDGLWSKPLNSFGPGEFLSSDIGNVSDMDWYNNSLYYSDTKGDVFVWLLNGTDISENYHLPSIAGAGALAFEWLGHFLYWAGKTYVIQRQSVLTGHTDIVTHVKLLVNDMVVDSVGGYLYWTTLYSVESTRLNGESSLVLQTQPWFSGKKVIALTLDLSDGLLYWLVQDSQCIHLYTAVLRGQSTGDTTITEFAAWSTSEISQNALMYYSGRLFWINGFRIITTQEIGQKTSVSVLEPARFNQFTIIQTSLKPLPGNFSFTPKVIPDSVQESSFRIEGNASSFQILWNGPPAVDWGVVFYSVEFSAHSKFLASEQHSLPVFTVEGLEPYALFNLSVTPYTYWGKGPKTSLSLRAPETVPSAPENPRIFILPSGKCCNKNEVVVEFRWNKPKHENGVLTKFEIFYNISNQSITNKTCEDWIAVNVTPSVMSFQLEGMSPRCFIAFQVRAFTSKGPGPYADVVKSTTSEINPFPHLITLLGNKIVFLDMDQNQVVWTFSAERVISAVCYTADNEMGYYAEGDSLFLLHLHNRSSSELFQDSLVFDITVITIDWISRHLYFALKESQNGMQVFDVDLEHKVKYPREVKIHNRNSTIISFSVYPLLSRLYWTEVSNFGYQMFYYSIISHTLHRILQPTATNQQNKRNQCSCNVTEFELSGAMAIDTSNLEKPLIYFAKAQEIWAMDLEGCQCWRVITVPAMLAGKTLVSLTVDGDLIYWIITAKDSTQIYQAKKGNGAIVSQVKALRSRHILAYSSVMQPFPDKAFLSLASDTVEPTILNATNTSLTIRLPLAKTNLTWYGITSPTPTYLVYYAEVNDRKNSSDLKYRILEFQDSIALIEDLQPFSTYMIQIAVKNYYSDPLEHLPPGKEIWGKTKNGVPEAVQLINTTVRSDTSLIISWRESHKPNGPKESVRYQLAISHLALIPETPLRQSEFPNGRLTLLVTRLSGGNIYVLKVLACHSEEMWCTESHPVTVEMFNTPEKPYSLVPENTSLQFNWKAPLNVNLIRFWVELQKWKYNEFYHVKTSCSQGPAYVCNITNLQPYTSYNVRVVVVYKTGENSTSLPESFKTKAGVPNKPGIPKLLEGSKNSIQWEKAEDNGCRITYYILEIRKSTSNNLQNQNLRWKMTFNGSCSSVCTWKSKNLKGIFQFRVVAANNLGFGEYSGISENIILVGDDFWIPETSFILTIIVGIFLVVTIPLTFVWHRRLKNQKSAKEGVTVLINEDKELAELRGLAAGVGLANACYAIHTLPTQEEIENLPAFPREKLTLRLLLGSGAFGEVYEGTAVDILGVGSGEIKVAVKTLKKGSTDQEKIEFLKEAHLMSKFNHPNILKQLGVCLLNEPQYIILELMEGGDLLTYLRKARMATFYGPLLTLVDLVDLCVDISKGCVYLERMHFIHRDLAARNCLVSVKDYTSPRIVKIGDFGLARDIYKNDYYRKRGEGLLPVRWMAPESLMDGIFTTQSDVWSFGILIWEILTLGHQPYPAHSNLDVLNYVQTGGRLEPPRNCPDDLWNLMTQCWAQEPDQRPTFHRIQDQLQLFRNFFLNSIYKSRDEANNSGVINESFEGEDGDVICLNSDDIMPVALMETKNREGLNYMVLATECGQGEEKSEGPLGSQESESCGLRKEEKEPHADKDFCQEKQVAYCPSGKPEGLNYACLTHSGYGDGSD

| SMILES | inhibition at 10 µM (PEAK1; [6]) | inhibition at 10 µM (FGR) | inhibition at 10 µM (FYN) | inhibition at 10 µM (TRKC) | inhibition at 10 µM (LCK) | inhibition at 10 µM (YES/YES1) | IC50 (TRKA-TFG (TRK-T3); [7]) | remaining activity at 10 µM (382 unique human kinases [1]) | remaining activity at 10 µM (382 unique human kinases [2]) | remaining activity at 10 µM (382 unique human kinases [3]) | remaining activity at 10 µM (382 unique human kinases [4]) | remaining activity at 10 µM (382 unique human kinases [5]) | also measured |
| --- | --- | --- | --- | --- | --- | --- | --- | --- | --- | --- | --- | --- | --- |
| CCNC(=O)c1noc(-c2cc(Cl)c(O)cc2O)c1-c1ccc(OC)cc1 [VER-50589] | -5 ± 1% | -7 ± 4% | -13 ± 5% | 10 ± 5% | -6 ± 6% | 1 ± 4% | – | – | – | – | – | – | % Enzyme Activity (relative to DMSO controls) (PEAK1; PEAK1, 10uM, ATP 30 uM, Data 1, Data 2): 104.61%; remaining activity at 10 µM (PEAK1; PEAK1, 10uM, ATP 30 uM, Data 1, Data 2, read-out: % Enzyme Activity (relative to DMSO controls)): 105%; % Enzyme Activity (relative to DMSO controls) (FGR; FGR, 10uM, ATP 50 uM, Data 1, Data 2): 109.55%; remaining activity at 10 µM (FGR; FGR, 10uM, ATP 50 uM, Data 1, Data 2, read-out: % Enzyme Activity (relative to DMSO controls)): 104%; % Enzyme Activity (relative to DMSO controls) (FYN; FYN, 10uM, ATP 30 uM, Data 1, Data 2): 116.15%; remaining activity at 10 µM (FYN; FYN, 10uM, ATP 30 uM, Data 1, Data 2, read-out: % Enzyme Activity (relative to DMSO controls)): 109%; % Enzyme Activity (relative to DMSO controls) (TRKC; TRKC, 10uM, ATP 100 uM, Data 1, Data 2): 86.46%; remaining activity at 10 µM (TRKC; TRKC, 10uM, ATP 100 uM, Data 1, Data 2, read-out: % Enzyme Activity (relative to DMSO controls)): 94.2%; % Enzyme Activity (relative to DMSO controls) (LCK; LCK, 10uM, ATP 15 uM, Data 1, Data 2): 102.22%; remaining activity at 10 µM (LCK; LCK, 10uM, ATP 15 uM, Data 1, Data 2, read-out: % Enzyme Activity (relative to DMSO controls)): 111%; % Enzyme Activity (relative to DMSO controls) (YES/YES1; YES/YES1, 10uM, ATP 50 uM, Data 1, Data 2): 96.18%; remaining activity at 10 µM (YES/YES1; YES/YES1, 10uM, ATP 50 uM, Data 1, Data 2, read-out: % Enzyme Activity (relative to DMSO controls)): 102% |
| CCNC(=O)c1noc(-c2cc(C(C)C)c(O)cc2O)c1-c1ccc(CN2CCOCC2)cc1 [Luminespib] | > 70% | 66 ± 1% | 35% | 4 ± 2% | 40 ± 2% | 49 ± 2% | > 10000 nM | 103% | – | – | – | – | % inhibition at 10 uM: PEAK1 (PEAK1; 10 μM, Fig 6C median ± standard deviation (n = 2)): 70 ± 1%; % Enzyme Activity (relative to DMSO controls) (382 unique human kinases [1]): 102.71% |
| CC(C)c1cc(-c2n[nH]c(=O)n2-c2ccc3c(ccn3C)c2)c(O)cc1O [Ganetespib (STA9090)] | – | – | – | – | – | – | – | – | 91.3% | 70.2% | 65.2% | 87% | – |
| CCNC(=O)c1noc(-c2cc(C(C)C)c(O)cc2O)c1-c1ccc(CN2CCOCC2)cc1 [Luminespib (AUY-922)] | – | – | – | – | – | – | – | – | 99.7% | 90.8% | 125% | 107% | % Enzyme Activity (relative to DMSO controls) (382 unique human kinases [2]): 97.02%; % Enzyme Activity (relative to DMSO controls) (382 unique human kinases [3]): 89.10%; % Enzyme Activity (relative to DMSO controls) (382 unique human kinases [4]): 124.56%; % Enzyme Activity (relative to DMSO controls) (382 unique human kinases [5]): 103.78% |
| CC(C)c1cc(-c2n[nH]c(=O)n2-c2ccc3c(ccn3C)c2)c(O)cc1O [Ganetespib] | – | – | – | – | – | – | 329 nM | 46.7% | – | – | – | – | HILLSLOPE (TRKA-TFG (TRK-T3); TRKA-TFG, single replicate curves): -1.03 and -1.06 and -1.02; IC50 (TRKA-TFG (TRK-T3); TRKA-TFG, single replicate curves, read-out: IC50): 328 nM and 331 nM and 326 nM; inhibition at 1 µM (TRKA-TFG (TRK-T3); read-out: % inhibition of TRKA-TFG at 1 μM, 1 μM, secondary screening): > 80%; inhibition at 10 µM (TRKA-TFG (TRK-T3); read-out: % inhibition of TRKA-TFG at 10 μM, 10 μM, kinome profiling): > 85% |

Source: paper PMC8550792, “Evolution of kinase polypharmacology across HSP90 drug discovery” (Cell Chemical Biology, 2021)
